Laboratory results as given in patent US10273218B2, “BCL-3 inhibitors” (University College Cardiff Consultants Limited, priority 2014, dated 2019).

O=C(Nc1ccccc1C(=O)NCCCc1ccccc1)c1ccccc1F [Compound 95, 2-fluoro-N-(2-((3-phenylpropyl)carbamoyl)phenyl)benzamide]
melting point: 61 to 63 °C

CN1CCN(CCNC(=O)c2ccccc2NC(=O)c2ccc(C(F)(F)F)cc2)CC1 [Compound 108]
melting point: 68 to 71 °C

COc1cc(NC(=O)c2ccccc2F)c(C(=O)NCCN2CCOCC2)c(OC)c1OC [Compound 20, 6-(2-fluorobenzamido)-2,3,4-trimethoxy-N-(2-morpholinoethyl) benzamide]
melting point: 141 °C

O=C(NCCCc1ccccc1)c1ccccc1NC(=O)c1cccc2ccccc12 [Compound 97, N-(2-((3-phenylpropyl)carbamoyl)phenyl)-1-naphthamide]
melting point: 98 to 100 °C

O=C(Nc1ccccc1C(=O)NCCN1CCNCC1)c1cccc(Cl)c1 [Compound 102, 2-(3-chlorobenzamido)-N-(2-(piperazin-1-yl)ethyl)benzamide]
melting point: 59 to 61 °C

O=C(Nc1ccccc1C(=O)NCCN1CCNCC1)c1ccc(F)cc1F [Compound 45, 2,4-difluoro-N-(2-((2-(piperazin-1-yl)ethyl)carbamoyl)phenyl) benzamide]
melting point: 84 °C

O=C(Nc1ccccc1C(=O)NCCN1CCOCC1)c1ccc(C(F)(F)F)cc1 [Compound 11, N-(2-morpholinoethyl)-2-(4-(trifluoromethyl)benzamido) benzamide]
melting point: 99 to 101 °C

O=C(Nc1ccccc1C(=O)NCCN1CCOCC1)c1ccc([N+](=O)[O-])cc1 [Compound 148, N-(2-morpholinoethyl)-2-(4-nitrobenzamido)benzamide]
melting point: 147 to 149 °C

COc1cccc(C(=O)NCCCc2ccccc2)c1NC(=O)c1ccc2ccccc2c1 [Compound 120, N-(2-methoxy-6-((3-phenylpropyl)carbamoyl)phenyl)-2-naphthamide]
melting point: 152 to 154 °C

O=C(Nc1cccc(F)c1C(=O)NCCc1ccccc1)c1ccccc1F [Compound 81, 2-fluoro-6-(2-fluorobenzamido)-N-phenethylbenzamide]
melting point: 96 to 98 °C

CN1CCN(CCNC(=O)c2ccccc2NC(=O)c2ccccc2)CC1 [Compound 47, 2-benzamido-N-(2-(4-methylpiperazin-1-yl)ethyl)benzamide]
melting point: 80 °C

CN1CCN(CCNC(=O)c2ccccc2NC(=O)c2ccc(F)cc2F)CC1 [Compound 57, 2,4-difluoro-N-(2-((2-(4-methylpiperazin-1-yl)ethyl)carbamoyl)phenyl)benzamide]
melting point: 121 to 122 °C

COc1ccc(C(=O)Nc2cc(OC)c(OC)cc2C(=O)NCCN2CCN(C)CC2)cc1 [Compound 61, 4,5-dimethoxy-2-(4-methoxybenzamido)-N-(2-(4-methylpiperazin-1-yl)ethyl)benzamide]
melting point: 70 °C

CN1CCN(CCNC(=O)c2ccccc2NC(=O)c2cc(F)cc(F)c2)CC1 [Compound 56, 3,5-difluoro-N-(2-((2-(4-methylpiperazin-1-yl)ethyl)carbamoyl)phenyl)benzamide]
melting point: 111 °C

CN1CCN(CCNC(=O)c2ccccc2NC(=O)c2cccc(F)c2)CC1 [Compound 50, 2-(3-fluorobenzamido)-N-(2-(4-methylpiperazin-1-yl)ethyl) benzamide]
melting point: 81 °C

O=C(Nc1ccccc1C(=O)NCCCN1CCOCC1)c1ccc2ccccc2c1 [Compound 37, N-(2-((3-morpholinopropyl)carbamoyl)phenyl)-2-naphthamide]
melting point: 103 to 105 °C

COc1ccc(C(=O)Nc2c(OC)cccc2C(=O)NCCN2CCOCC2)c(OC)c1 [Compound 29, 2-(2,4-dimethoxybenzamido)-3-methoxy-N-(2-morpholinoethyl) benzamide]
melting point: 103 to 106 °C

COc1ccc(C(=O)Nc2ccccc2C(=O)NCCN2CCN(C)CC2)cc1 [Compound 54, 2-(4-methoxybenzamido)-N-(2-(4-methylpiperazin-1-yl)ethyl) benzamide]
melting point: 114 °C

COc1cc(NC(=O)c2ccccc2F)c(C(=O)NCCN2CCOCC2)cc1OC [Compound 19, 2-(2-fluorobenzamido)-4,5-dimethoxy-N-(2-morpholinoethyl) benzamide]
melting point: 136 °C

O=C(Nc1ccccc1C(=O)NCCN1CCNCC1)c1ccc(Cl)cc1 [Compound 39, 2-(4-chlorobenzamido)-N-(2-(piperazin-1-yl)ethyl)benzamide]
melting point: 60 °C

CN1CCN(CCNC(=O)c2ccccc2NC(=O)c2cccnc2)CC1 [Compound 63, N-(2-((2-(4-methylpiperazin-1-yl)ethyl)carbamoyl)phenyl) nicotinamide]
melting point: 99 °C

COc1cccc(C(=O)Nc2cccc(F)c2C(=O)NCCN2CCN(C)CC2)c1 [Compound 110, 2-fluoro-6-(3-methoxybenzamido)-N-(2-(4-methylpiperazin-1-yl)ethyl)benzamide]
melting point: 108 to 110 °C

CN1CCN(CCNC(=O)c2ccccc2NC(=O)c2cccc(C(F)(F)F)c2)CC1 [Compound 114, N-(2-(4-methylpiperazin-1-yl)ethyl)-2-(3-(trifluoromethyl)benzamido) benzamide]
melting point: 101 to 103 °C

O=C(Nc1ccccc1C(=O)NCCCc1ccccc1)c1ccc2ccccc2c1 [Compound 98, N-(2-((3-phenylpropyl)carbamoyl)phenyl)-2-naphthamide]
melting point: 99 to 101 °C

O=C(Nc1ccccc1C(=O)NCCN1CCNCC1)c1cc(F)cc(F)c1 [Compound 43, 3,5-difluoro-N-(2-((2-(piperazin-1-yl)ethyl)carbamoyl)phenyl) benzamide]
melting point: 68 °C

CN1CCN(CCNC(=O)c2ccccc2NC(=O)c2ccccc2C(F)(F)F)CC1 [Compound 117]
melting point: 124 to 126 °C

CN1CCN(CCNC(=O)c2ccccc2NC(=O)c2cccc(Cl)c2)CC1 [Compound 51, 2-(3-chlorobenzamido)-N-(2-(4-methylpiperazin-1-yl)ethyl) benzamide]
melting point: 104 °C

O=C(Nc1ccccc1C(=O)NCCN1CCOCC1)c1cccc([N+](=O)[O-])c1 [Compound 146, N-(2-morpholinoethyl)-2-(3-nitrobenzamido)benzamide]
melting point: 147 to 149 °C

COc1ccccc1C(=O)Nc1c(OC)cccc1C(=O)NCCN1CCOCC1 [Compound 25, 3-methoxy-2-(2-methoxybenzamido)-N-(2-morpholinoethyl) benzamide]
melting point: 105 to 107 °C

O=C(Nc1ccccc1C(=O)NCCN1CCOCC1)c1cccnc1 [Compound 32, N-(2-((2-morpholinoethyl)carbamoyl)phenyl)nicotinamide]
melting point: 85 °C

COc1ccc(C(=O)Nc2cc(OC)c(OC)c(OC)c2C(=O)NCCN2CCOCC2)cc1 [Compound 27, 2,3,4-trimethoxy-6-(4-methoxybenzamido)-N-(2-morpholinoethyl)benzamide]
melting point: 143 °C

COc1ccc(C(=O)Nc2ccccc2C(=O)NCCCc2ccccc2)cc1 [Compound 96, 2-(4-methoxybenzamido)-N-(3-phenylpropyl)benzamide]
melting point: 93 to 94 °C

O=C(NCCCN1CCOCC1)c1ccccc1NC(=O)c1cccc2ccccc12 [Compound 36, N-(2-((3-morpholinopropyl)carbamoyl)phenyl)-1-naphthamide]
melting point: 110 to 112 °C

COc1cccc(C(=O)NCCN2CCOCC2)c1NC(=O)c1cccc(F)c1 [Compound 17, 2-(3-fluorobenzamido)-3-methoxy-N-(2-morpholinoethyl) benzamide]
melting point: 128 to 131 °C

O=C(Nc1ccccc1C(=O)NCCN1CCNCC1)c1ccc([N+](=O)[O-])cc1 [Compound 38, 2-(4-nitrobenzamido)-N-(2-(piperazin-1-yl)ethyl)benzamide]
melting point: 98 °C

COc1ccc(C(=O)Nc2c(OC)cccc2C(=O)NCCc2ccccc2)c(OC)c1 [Compound 93, 2-(2,4-dimethoxybenzamido)-3-methoxy-N-phenethylbenzamide]
melting point: 132 to 134 °C

COc1cc(C(=O)NCCCc2ccccc2)c(NC(=O)c2ccccc2F)c(OC)c1OC [Compound 124, 2-(2-fluorobenzamido)-3,4,5-trimethoxy-N-(3-phenylpropyl)benzamide]
melting point: 145 to 147 °C

COc1ccc(C(=O)Nc2cccc(F)c2C(=O)NCCN2CCN(C)CC2)cc1 [Compound 109, 2-fluoro-6-(4-methoxybenzamido)-N-(2-(4-methylpiperazin-1-yl)ethyl)benzamide]
melting point: 81 to 83 °C

COc1ccc(C(=O)Nc2ccncc2C(=O)NCCN2CCN(C)CC2)cc1 [Compound 116, 4-(4-methoxybenzamido)-N-(2-(4-methylpiperazin-1-yl)ethyl)nicotinamide]
melting point: 83 to 85 °C

COc1cc(NC(=O)c2cccnc2)c(C(=O)NCCN2CCN(C)CC2)c(OC)c1OC [Compound 65, N-(3,4,5-trimethoxy-2-((2-(4-methylpiperazin-1-yl)ethyl)carbamoyl)phenyl)nicotinamide]
melting point: 143 °C

COc1cccc(C(=O)NCCc2ccccc2)c1NC(=O)c1cccc(F)c1 [Compound 85, 2-(3-fluorobenzamido)-3-methoxy-N-phenethylbenzamide]
melting point: 99 to 101 °C

COc1ccc(C(=O)Nc2ccccc2C(=O)NCCCN2CCOCC2)cc1 [Compound 35, 2-(4-methoxybenzamido)-N-(3-morpholinopropyl)benzamide]
melting point: 112 to 114 °C

O=C(Nc1cccc(F)c1C(=O)NCCN1CCOCC1)c1ccccc1F [Compound 13, 2-fluoro-6-(2-fluorobenzamido)-N-(2-morpholinoethyl) benzamide]
melting point: 88 to 90 °C

COc1ccc(C(=O)Nc2cc(OC)c(OC)c(OC)c2C(=O)NCCN2CCN(C)CC2)cc1 [Compound 62, 2,3,4-trimethoxy-6-(4-methoxybenzamido)-N-(2-(4-methylpiperazin-1-yl)ethyl)benzamide]
melting point: 115 °C

COc1cccc(C(=O)NCCN2CCOCC2)c1NC(=O)c1ccc(F)cc1 [Compound 18, 2-(4-fluorobenzamido)-3-methoxy-N-(2-morpholinoethyl) benzamide]
melting point: 148 to 151 °C

COc1cccc(C(=O)Nc2ccccc2C(=O)NCCN2CCN(C)CC2)c1 [Compound 101, 2-(3-methoxybenzamido)-N-(2-(4-methylpiperazin-1-yl)ethyl)benzamide]
melting point: 113 to 115 °C
